Measured values taken from patent US11142525B2 (Pfizer Inc., priority 2018, dated 2021).
Where a name gives a salt, the structure may show the parent alone. Read-outs that look alike come from different tables or passages of the source.

How the values were obtained:
[1] = tested on: phospho-SLP-76 (Ser376) in Jurkat cells; experiment: Phospho-SLP-76 (Ser376) Homogeneous Time Resolved Fluorescence (HTRF) assay in Jurkat cells; format: cell-based; settings: Homo sapiens, read-out: SLP76 Assay_IC50
Procedure: Jurkat cells were seeded at 90,000 cells/well in 90 uL of RPMI1640 growth medium containing 10% FBS and incubated at 37° C. with 5% CO2 overnight. The following day, compounds were serially diluted from a 10 mM top dose for an 11-point 3 fold dilution curve in DMSO. Compounds were intermediately diluted 1:100 into growth media prior to diluting 1:10 on cells for final concentration 10 μM to 0.1 nM in 0.1% DMSO. After 30 minutes pre-treatment with compounds, the cells were stimulated using 200 μg/mL of F(ab)2 complexed anti-CD3 (clone UCTH1) for 15 min at 37° C. with 5% CO2. Stimulation was stopped with ice cold PBS and cells were harvested by centrifugation before lysis in Cisbio lysis buffer (Cisbio, Bedford, Mass.). Lysates were transferred to white, low-volume plates containing anti-phospho-SLP-76-Cryptate plus anti-phospho-SLP-76-d2 HTRF antibodies and incubated overnight at room temperature protected from light according to the manufacturer's protocol (Cisbio, Bedford, Mass.). HTRF was measured on a Perkin Elmer Envision and IC50 values were calculated by concentration-response curve fitting utilizing four-parameter nonlinear regression analyses.

[2] = molecular target: human full-length recombinant HPK1 (Homo sapiens (Human), UniProt Q92918); experiment: HPK1 biochemical enzyme assay, microfluidic mobility shift assay (MSA); settings: read-out: HPK1 Enzyme Assay_Ki
Procedure: HPK1 enzyme inhibition was measured using a microfluidic mobility shift assay (MSA). […] The reactions were conducted for 60 min at 37° C., stopped by the addition of 50 μL of 0.015 M EDTA, pH 8, and the extent of reactions (˜15-20% conversion with no inhibitor) was determined after electrophoretic separation of the fluorescently labeled peptide substrate and phosphorylated product on an LabChip EZ Reader II (PerkinElmer, Inc., Waltham, Mass.). […]

[3] = 30 min pre-treatment, anti-CD3 stimulation 15 min, HTRF
[4] = mobility shift assay, 75 μM ATP, Morrison equation, tight-binding competitive inhibition
[5] = Phospho-SLP-76 (Ser376) HTRF, anti-CD3 stimulation

human full-length recombinant HPK1, sequence (Q92918 whole entry): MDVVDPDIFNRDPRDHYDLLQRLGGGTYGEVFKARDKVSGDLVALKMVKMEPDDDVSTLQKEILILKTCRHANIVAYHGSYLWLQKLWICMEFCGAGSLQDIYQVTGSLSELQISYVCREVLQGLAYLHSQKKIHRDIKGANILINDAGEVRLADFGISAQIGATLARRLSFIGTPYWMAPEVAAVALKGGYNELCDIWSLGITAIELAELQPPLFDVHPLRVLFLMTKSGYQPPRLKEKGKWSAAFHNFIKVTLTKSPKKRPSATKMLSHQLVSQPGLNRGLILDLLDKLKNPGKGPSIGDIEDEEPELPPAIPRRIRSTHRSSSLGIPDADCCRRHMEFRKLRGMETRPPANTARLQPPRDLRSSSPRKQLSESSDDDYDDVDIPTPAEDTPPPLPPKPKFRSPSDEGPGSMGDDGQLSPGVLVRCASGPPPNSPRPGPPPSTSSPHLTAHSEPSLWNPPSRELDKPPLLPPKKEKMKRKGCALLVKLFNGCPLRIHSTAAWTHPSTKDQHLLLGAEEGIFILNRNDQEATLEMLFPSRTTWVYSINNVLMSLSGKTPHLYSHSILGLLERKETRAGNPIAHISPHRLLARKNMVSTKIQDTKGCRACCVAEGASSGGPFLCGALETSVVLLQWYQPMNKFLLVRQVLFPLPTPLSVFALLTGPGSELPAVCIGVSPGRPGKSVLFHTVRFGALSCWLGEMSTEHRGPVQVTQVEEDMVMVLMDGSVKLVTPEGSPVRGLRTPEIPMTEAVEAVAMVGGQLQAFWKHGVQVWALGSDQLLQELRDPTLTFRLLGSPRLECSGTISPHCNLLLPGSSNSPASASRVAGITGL

Row | Structure (SMILES) | IC50 [1, 3] [nM] | Ki [2, 4] [nM] | IC50 [1, 5] [nM] | Ki ([2]; HPK1 mobility shift assay) [nM]
1 | CC(C)n1cnnc1-c1cccc(N2Cc3c(cc(N4[C@H](C)C[C@@H]4C)nc3CN)C2=O)n1 [Example 34, 4-(aminomethyl)-6-[(2R,4S)-2,4-dimethylazetidin-1-yl]-2-{6-[4-(propan-2-yl)-4H-1,2,4-triazol-3-yl]pyridin-2-yl}-2,3-dihydro-1H-pyrrolo[3,4-c]pyridin-1-one] | 379 | 1.32 |  | 
2 | CCCn1c(C)nnc1-c1cccc(N2Cc3c(cc(N(C)C(C)C)nc3CN)C2=O)n1 [Example 172] |  |  | 85 | 0.55
3 | CCC(CC)n1cnnc1-c1cccc(N2Cc3c(cc(N(C)C)nc3CN)C2=O)n1 [Example 117, 4-(aminomethyl)-6-(dimethylamino)-2-{6-[4-(pentan-3-yl)-4H-1,2,4-triazol-3-yl]pyridin-2-yl}-2,3-dihydro-1H-pyrrolo[3,4-c]pyridin-1-one] |  |  | 89 | 0.46
4 | CNCc1nc(C2CC2)cc2c1CN(c1cccc(N3C(=O)OC[C@@H]3CF)n1)C2=O [Example 87, 6-cyclopropyl-2-{6-[(4R)-4-(fluoromethyl)-2-oxo-1,3-oxazolidin-3-yl]pyridin-2-yl}-4-[(methylamino)methyl]-2,3-dihydro-1H-pyrrolo[3,4-c]pyridin-1-one] |  |  | 299 | 1.44
5 | C[C@H]1CCCN1c1cc2c(c(CN)n1)CN(c1cccc(N3C(=O)OC[C@@H]3C)n1)C2=O [Example 132, 4-(aminomethyl)-2-{6-[(4S)-4-methyl-2-oxo-1,3-oxazolidin-3-yl]pyridin-2-yl}-6-[(2S)-2-methylpyrrolidin-1-yl]-2,3-dihydro-1H-pyrrolo[3,4-c]pyridin-1-one] |  |  | 67 | 0.2
6 | CNCc1nc(N2C[C@@H](C)O[C@@H](C)C2)cc2c1CN(c1cccc(-c3nncn3C(C)C)n1)C2=O [Example 112, 6-[2,6-dimethylmorpholin-4-yl]-4-[(methylamino)methyl]-2-{6-[4-(propan-2-yl)-4H-1,2,4-triazol-3-yl]pyridin-2-yl}-2,3-dihydro-1H-pyrrolo[3,4-c]pyridin-1-one] |  |  | 431 | 1.49
7 | CCCn1cnnc1-c1cccc(N2Cc3c(cc(N4CCC[C@@H]4C(F)(F)F)nc3CNC)C2=O)n1 [Example 120, 4-[(methylamino)methyl]-2-[6-(4-propyl-4H-1,2,4-triazol-3-yl)pyridin-2-yl]-6-[(2R)-2-(trifluoromethyl)pyrrolidin-1-yl]-2,3-dihydro-1H-pyrrolo[3,4-c]pyridin-1-one] |  |  | 56 | < 0.09
8 | CCN(CC)c1cc2c(c(CNC)n1)CN(c1cccc(-c3cnc(C)n3CC)n1)C2=O [Example 96, 6-(diethylamino)-2-[6-(1-ethyl-2-methyl-1H-imidazol-5-yl)pyridin-2-yl]-4-[(methylamino)methyl]-2,3-dihydro-1H-pyrrolo[3,4-c]pyridin-1-one] |  |  | 142 | 0.4
9 | CNCc1nc(N(C)C)cc2c1CN(c1cccc(N3C(=O)OC[C@@H]3CF)n1)C2=O [Example 45, 6-(dimethylamino)-2-{6-[(4R)-4-(fluoromethyl)-2-oxo-1,3-oxazolidin-3-yl]pyridin-2-yl}-4-[(methylamino)methyl]-2,3-dihydro-1H-pyrrolo[3,4-c]pyridin-1-one] | 173 | 0.17 |  | 
10 | CCCn1cnnc1-c1cccc(N2Cc3c(cc(N(C)CC)nc3CN)C2=O)n1 [Example 56, 4-(aminomethyl)-6-[ethyl(methyl)amino]-2-[6-(4-propyl-4H-1,2,4-triazol-3-yl)pyridin-2-yl]-2,3-dihydro-1H-pyrrolo[3,4-c]pyridin-1-one hydrochloride] | 139 | 0.34 |  | 
11 | CCn1cnnc1-c1cccc(N2Cc3c(cc(N(C)C)nc3CNC)C2=O)n1 [Example 20, 6-(dimethylamino)-2-[6-(4-ethyl-4H-1,2,4-triazol-3-yl)pyridin-2-yl]-4-[(methylamino)methyl]-2,3-dihydro-1H-pyrrolo[3,4-c]pyridin-1-one] | 158 | 2.8 |  | 
12 | CCC(CC)n1c(C)nnc1-c1cccc(N2Cc3c(cc(N4CCC[C@@H]4C)nc3CNC)C2=O)n1 [Example 135, 4-[(methylamino)methyl]-2-{6-[5-methyl-4-(pentan-3-yl)-4H-1,2,4-triazol-3-yl]pyridin-2-yl}-6-[(2S)-2-methylpyrrolidin-1-yl]-2,3-dihydro-1H-pyrrolo[3,4-c]pyridin-1-one] |  |  | > 10000 | 0.8
13 | CCC(CC)n1cnnc1-c1cccc(N2Cc3c(cc(N(C)C(C)C)nc3CN)C2=O)n1 [Example 150] |  |  | 33 | 0.06
14 | CCN(C)c1cc2c(c(CN)n1)CN(c1cccc(-c3nnc(C)n3C(C)C)n1)C2=O [Example 160] |  |  | 272 | 0.48
15 | CNCc1nc(N2CCC2)cc2c1CN(c1cccc(-c3nncn3C(C)C)n1)C2=O [Example 2, 6-(azetidin-1-yl)-4-[(methylamino)methyl]-2-{6-[4-(propan-2-yl)-4H-1,2,4-triazol-3-yl]pyridin-2-yl}-2,3-dihydro-1H-pyrrolo[3,4-c]pyridin-1-one] | 86 | 0.28 |  | 
16 | CCCn1cnnc1-c1cccc(N2Cc3c(cc(N4CCC[C@H]4C(F)(F)F)nc3CNC)C2=O)n1 [Example 113, 4-[(methylamino)methyl]-2-[6-(4-propyl-4H-1,2,4-triazol-3-yl)pyridin-2-yl]-6-[(2S)-2-(trifluoromethyl)pyrrolidin-1-yl]-2,3-dihydro-1H-pyrrolo[3,4-c]pyridin-1-one] |  |  | 83 | 0.22
17 | CCN(c1cc2c(c(CN)n1)CN(c1cccc(-c3nncs3)n1)C2=O)C(C)C [Example 140, 4-(aminomethyl)-6-[ethyl(propan-2-yl)amino]-2-[6-(1,3,4-thiadiazol-2-yl)pyridin-2-yl]-2,3-dihydro-1H-pyrrolo[3,4-c]pyridin-1-one] |  |  | 464 | 2.07
18 | CC[C@H](CC(F)(F)F)n1cnnc1-c1cccc(N2Cc3c(cc(N(C)C(C)C)nc3CNC)C2=O)n1 (single isomer, unassigned) [Example 73, 4-[(methylamino)methyl]-6-[methyl(propan-2-yl)amino]-2-(6-{4-[(3ξ)-1,1,1-trifluoropentan-3-yl]-4H-1,2,4-triazol-3-yl}pyridin-2-yl)-2,3-dihydro-1H-pyrrolo[3,4-c]pyridin-1-one] |  |  | 61 | 0.22
19 | CCn1cnnc1-c1cccc(N2Cc3c(cc(N4[C@H](C)CC[C@H]4C)nc3CNC)C2=O)n1 [Example 106, 6-[(2R,5R)-2,5-dimethylpyrrolidin-1-yl]-2-[6-(4-ethyl-4H-1,2,4-triazol-3-yl)pyridin-2-yl]-4-[(methylamino)methyl]-2,3-dihydro-1H-pyrrolo[3,4-c]pyridin-1-one] |  |  | 83 | 0.26
20 | CNCc1nc(N2[C@H](C)CC[C@H]2C)cc2c1CN(c1cccc(-c3nnc(C)n3C(C)C)n1)C2=O [Example 116, 6-[(2R,5R)-2,5-dimethylpyrrolidin-1-yl]-4-[(methylamino)methyl]-2-{6-[5-methyl-4-(propan-2-yl)-4H-1,2,4-triazol-3-yl]pyridin-2-yl}-2,3-dihydro-1H-pyrrolo[3,4-c]pyridin-1-one] |  |  | 381 | 1.04
21 | CCc1nnc(-c2cccc(N3Cc4c(cc(N5CCC[C@H]5C)nc4CNC)C3=O)n2)n1CC [Example 66, 2-[6-(4,5-diethyl-4H-1,2,4-triazol-3-yl)pyridin-2-yl]-4-[(methylamino)methyl]-6-[(2R)-2-methylpyrrolidin-1-yl]-2,3-dihydro-1H-pyrrolo[3,4-c]pyridin-1-one] | 108 | 0.52 |  | 
22 | CNCc1nc(C2CC2)cc2c1CN(c1cccc(N3C(=O)OC[C@@H]3C)n1)C2=O [Example 40, 6-cyclopropyl-4-[(methylamino)methyl]-2-{6-[(4S)-4-methyl-2-oxo-1,3-oxazolidin-3-yl]pyridin-2-yl}-2,3-dihydro-1H-pyrrolo[3,4-c]pyridin-1-one] | 137 | 0.81 |  | 
23 | CC(C)N(C)c1cc2c(c(CN)n1)CN(c1cccc(N3C(=O)OC[C@@H]3C)n1)C2=O [Example 100, 4-(aminomethyl)-2-{6-[(4S)-4-methyl-2-oxo-1,3-oxazolidin-3-yl]pyridin-2-yl}-6-[methyl(propan-2-yl)amino]-2,3-dihydro-1H-pyrrolo[3,4-c]pyridin-1-one] |  |  | 34 | < 0.05
24 | CC[C@H](CC(F)(F)F)n1cnnc1-c1cccc(N2Cc3c(cc(C(C)(C)C)nc3CNC)C2=O)n1 (single isomer, unassigned) [Example 51, 6-tert-butyl-4-[(methylamino)methyl]-2-(6-{4-[(3ξ)-1,1,1-trifluoropentan-3-yl]-4H-1,2,4-triazol-3-yl}pyridin-2-yl)-2,3-dihydro-1H-pyrrolo[3,4-c]pyridin-1-one] | 1520 | 7.1 |  | 
